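Test compounds were applied to cells in 96-well plates for 48 hours at 5 doses. At the TGI there is no net growth.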 Where a SMILES comes first, the peptide text is derived from it. [ ]: non-standard residue; d: D form. The star is where a group is joined. ξ: configuration not given here. ξF = NC(Cc1ccccc1)C(=O)O; Cbz = O=C(OCc1ccccc1)*; Aib = CC(C)(N)C(=O)O
Assays:
Experiment in all cases: inhibition of tumour cell growth, NCI panel, 48 h
EKVX NSCLC = tested on: EKVX NSCLC
A549 NSCLC = tested on: A549 NSCLC
NCI-H460 lung = tested on: NCI-H460 lung
HOP-62 NSCLC = tested on: HOP-62 NSCLC
SK-MEL-28 melanoma = tested on: SK-MEL-28 melanoma
SNB-75 CNS = tested on: SNB-75 CNS
SN12C renal = tested on: SN12C renal
MDA-MB-435 = tested on: MDA-MB-435
RPMI-8226 leukemia = tested on: RPMI-8226 leukemia
SK-OV-3 ovarian = tested on: SK-OV-3 ovarian
MOLT-4 leukemia = tested on: MOLT-4 leukemia

Compound `CC(=O)Nc1cccc(N2C(=O)/C(=C\c3cccc(Oc4ccccc4)c3)S(=O)(=O)C2c2ccccc2)c1` (stereo unspecified) has a TGI (EKVX NSCLC) of over 100 µM, a TGI (A549 NSCLC) of over 100 µM and a TGI (NCI-H460 lung) of over 100 µM. It also gave a TGI (HOP-62 NSCLC) of over 100 µM, a TGI (SK-MEL-28 melanoma) of over 100 µM and a TGI (SNB-75 CNS) of over 100 µM. It also gave a TGI (SN12C renal) of over 100 µM, a TGI (MDA-MB-435) of over 100 µM and a TGI (RPMI-8226 leukemia) of over 100 µM. For the same compound, the TGI (SK-OV-3 ovarian) was over 100 µM and the TGI (MOLT-4 leukemia) was 62.6 µM.

`CCOC(=O)Cn1c2ccc(Br)cc2c2nc3ccccc3nc21` gave a TGI (A549 NSCLC) of over 100 µM, a TGI (HOP-62 NSCLC) of over 100 µM and a TGI (SK-MEL-28 melanoma) of over 100 µM. The TGI (SNB-75 CNS) was over 100 µM, the TGI (SN12C renal) was over 100 µM and the TGI (MDA-MB-435) was over 100 µM. For the same compound, the TGI (RPMI-8226 leukemia) was over 100 µM and the TGI (MOLT-4 leukemia) was over 100 µM.

With `COc1ccc(NC(C)=O)cc1N1C(=O)/C(=C\c2ccccc2)SC1c1cc(OC)c(OC)c(OC)c1` (stereo unspecified) the TGI (EKVX NSCLC) was over 100 µM, the TGI (A549 NSCLC) was over 100 µM and the TGI (NCI-H460 lung) was 44.5 µM. For the same compound, the TGI (HOP-62 NSCLC) was over 100 µM, the TGI (SK-MEL-28 melanoma) was over 100 µM and the TGI (SN12C renal) was over 100 µM. For the same compound, the TGI (MDA-MB-435) was over 100 µM, the TGI (RPMI-8226 leukemia) was over 100 µM and the TGI (SK-OV-3 ovarian) was over 100 µM. For the same compound, the TGI (MOLT-4 leukemia) was over 100 µM.

`CCOC(=O)CNC(=O)C(Cc1ccccc1)NC(=O)C(C)(C)NC(=O)OCc1ccccc1` (stereo unspecified) (Cbz-[Aib]-[ξF]-Gly-OEt) was tested, and the TGI (EKVX NSCLC) was over 100 µM, the TGI (A549 NSCLC) was over 100 µM and the TGI (HOP-62 NSCLC) was over 100 µM. It also gave a TGI (SK-MEL-28 melanoma) of 33.2 µM, a TGI (MDA-MB-435) of over 100 µM and a TGI (RPMI-8226 leukemia) of over 100 µM. The TGI (MOLT-4 leukemia) was over 100 µM.

In the case of `C[Si](C)(C)c1ccc(-c2c3ccc(-c4cc(Br)cc(Br)c4)nc3nc3nc(-c4cc(Br)cc(Br)c4)ccc23)cc1`, the TGI (EKVX NSCLC) is reported as over 100 µM, the TGI (A549 NSCLC) is reported as over 100 µM and the TGI (NCI-H460 lung) is reported as over 100 µM. For the same compound, the TGI (HOP-62 NSCLC) was over 100 µM, the TGI (SK-MEL-28 melanoma) was over 100 µM and the TGI (SNB-75 CNS) was over 100 µM. For the same compound, the TGI (SN12C renal) was over 100 µM, the TGI (MDA-MB-435) was over 100 µM and the TGI (RPMI-8226 leukemia) was over 100 µM. For the same compound, the TGI (SK-OV-3 ovarian) was over 100 µM.

Compound `CSc1nc(CO)c(CO)n1C` has a TGI (EKVX NSCLC) of over 100 µM, a TGI (A549 NSCLC) of over 100 µM and a TGI (NCI-H460 lung) of over 100 µM. The TGI (HOP-62 NSCLC) was over 100 µM, the TGI (SK-MEL-28 melanoma) was over 100 µM and the TGI (SNB-75 CNS) was over 100 µM. The TGI (SN12C renal) was over 100 µM, the TGI (RPMI-8226 leukemia) was over 100 µM and the TGI (SK-OV-3 ovarian) was over 100 µM. It also gave a TGI (MOLT-4 leukemia) of over 100 µM.

In the case of `CC1(CO)COS(=O)OC1` (stereo unspecified), the TGI (A549 NSCLC) is reported as over 100 µM, the TGI (NCI-H460 lung) is reported as over 100 µM and the TGI (SK-MEL-28 melanoma) is reported as over 100 µM. The TGI (SNB-75 CNS) was over 100 µM, the TGI (SN12C renal) was over 100 µM and the TGI (MDA-MB-435) was over 100 µM. For the same compound, the TGI (SK-OV-3 ovarian) was over 100 µM and the TGI (MOLT-4 leukemia) was over 100 µM.

`Nc1ccc(O)c2c1C(=O)c1c(N)ccc(O)c1C2=O` was tested, and the TGI (EKVX NSCLC) was over 100 µM, the TGI (A549 NSCLC) was over 100 µM and the TGI (NCI-H460 lung) was over 100 µM. For the same compound, the TGI (HOP-62 NSCLC) was over 100 µM, the TGI (SK-MEL-28 melanoma) was over 100 µM and the TGI (SNB-75 CNS) was over 100 µM. For the same compound, the TGI (SN12C renal) was over 100 µM, the TGI (RPMI-8226 leukemia) was over 100 µM and the TGI (SK-OV-3 ovarian) was over 100 µM. It also gave a TGI (MOLT-4 leukemia) of over 100 µM.

With `O=C(NC(Cc1ccc(Br)cc1)C(=O)O)c1ccc(I)cc1` (stereo unspecified) the TGI (EKVX NSCLC) was over 100 µM, the TGI (A549 NSCLC) was over 100 µM and the TGI (NCI-H460 lung) was over 100 µM. For the same compound, the TGI (HOP-62 NSCLC) was over 100 µM, the TGI (SK-MEL-28 melanoma) was over 100 µM and the TGI (SNB-75 CNS) was over 100 µM. The TGI (SN12C renal) was over 100 µM, the TGI (RPMI-8226 leukemia) was over 100 µM and the TGI (SK-OV-3 ovarian) was over 100 µM. The TGI (MOLT-4 leukemia) was over 100 µM.

`CC(C)(C)OC(=O)N1C(OP(=O)(Oc2ccccc2)Oc2ccccc2)=CSc2ccccc21` showed a TGI (EKVX NSCLC) of over 100 µM, a TGI (A549 NSCLC) of over 100 µM and a TGI (NCI-H460 lung) of over 100 µM. For the same compound, the TGI (HOP-62 NSCLC) was over 100 µM, the TGI (SK-MEL-28 melanoma) was over 100 µM and the TGI (SNB-75 CNS) was over 100 µM. For the same compound, the TGI (SN12C renal) was over 100 µM, the TGI (MDA-MB-435) was over 100 µM and the TGI (RPMI-8226 leukemia) was 52 µM. The TGI (SK-OV-3 ovarian) was over 100 µM and the TGI (MOLT-4 leukemia) was 66 µM.

Compound `COc1cc(/C=N/c2nc3cc4sc(/N=C/c5cc(OC)c(OC)c(OC)c5)nc4cc3s2)cc(OC)c1OC` has a TGI (EKVX NSCLC) of over 100 µM, a TGI (A549 NSCLC) of over 100 µM and a TGI (NCI-H460 lung) of over 100 µM. It also gave a TGI (HOP-62 NSCLC) of over 100 µM, a TGI (SK-MEL-28 melanoma) of 39.1 µM and a TGI (SNB-75 CNS) of over 100 µM. It also gave a TGI (SN12C renal) of over 100 µM, a TGI (MDA-MB-435) of over 100 µM and a TGI (RPMI-8226 leukemia) of over 100 µM. It also gave a TGI (SK-OV-3 ovarian) of over 100 µM and a TGI (MOLT-4 leukemia) of over 100 µM.
